Results as given in ChEMBL document CHEMBL4396913, “Synthesis and biological evaluation of hybrid quinolone-based quaternary ammonium antibacterial agents” (Eur J Med Chem, 2019).
Activity calls are given as the source filed them. The rule behind the calls is not given here.

Columns and labels:
[1] = test system: Staphylococcus aureus; assay: Biofilm degradation activity against Staphylococcus aureus ATCC 6538 assessed as biofilm formation at 2 times antibacterial MIC incubated for 24 hrs compound added post-biofilm formation by total biomass crystal violet staining-based method; format: functional
[2] = test system: Staphylococcus aureus; assay: Antibacterial activity against methicillin resistant Staphylococcus aureus N315 cultured in MH medium assessed as reduction in bacterial growth incubated for 48 hrs by microbroth dilution method; format: functional; conditions: N315, 48 h
[3] = test system: Pseudomonas aeruginosa; assay: Antibacterial activity against Pseudomonas aeruginosa ATCC 9027 cultured in MH medium assessed as reduction in bacterial growth incubated for 48 hrs by microbroth dilution method; format: functional; conditions: ATCC 9027, 48 h
[4] = test system: HEK293; assay: Cytotoxicity against human HEK293 cells assessed as changes in cell morphology upto 20 uM incubated for 72 hrs by MTT assay; format: cell-based; conditions: hek293, 72 h
[5] = test system: Escherichia coli; assay: Antibacterial activity against […] Escherichia coli ATCC 8739 assessed as reduction in bacterial growth incubated for 48 hrs in presence of 50 ug/ml […], PAbetaN by microbroth dilution method; format: functional; conditions: ATCC 8739, 48 h
[6] = test system: Pseudomonas aeruginosa; assay: Biofilm degradation activity against Pseudomonas aeruginosa ATCC 9027 assessed as biofilm formation at 2 times antibacterial MIC incubated for 24 hrs compound added post-biofilm formation by total biomass crystal violet staining-based method; format: functional
[7] = test system: Staphylococcus aureus; assay: Antibiofilm activity against Staphylococcus aureus ATCC 25923 assessed as reduction in biofilm biomass at >2.5 uM incubated for 24 hrs compound added prior to bacterial biofilm formation by crystal violet staining based assay; format: functional, organism-based
[8] = test system: Proteus vulgaris; assay: Antibacterial activity against Proteus vulgaris NCTC 4635 cultured in MH medium assessed as reduction in bacterial growth incubated for 48 hrs by microbroth dilution method; format: functional; conditions: NCTC 4635, 48 h
[9] = test system: Escherichia coli; assay: Bactericidal activity against Escherichia coli ATCC 8739 cultured in MH medium assessed as reduction in bacterial survival incubated for 48 hrs by microbroth dilution method; format: functional; conditions: ATCC 8739, 48 h
[10] = test system: Escherichia coli; assay: Antibacterial activity against Escherichia coli ATCC 8739 cultured in MH medium assessed as reduction in bacterial growth incubated for 48 hrs by microbroth dilution method; format: functional; conditions: ATCC 8739, 48 h
[11] = test system: Proteus vulgaris; assay: Bactericidal activity against Proteus vulgaris NCTC 4635 cultured in MH medium assessed as reduction in bacterial survival incubated for 48 hrs by microbroth dilution method; format: functional; conditions: NCTC 4635, 48 h
[12] = test system: Staphylococcus epidermidis; assay: Antibacterial activity against Staphylococcus epidermidis ATCC 14990 cultured in MH medium assessed as reduction in bacterial growth incubated for 48 hrs by microbroth dilution method; format: functional; conditions: ATCC 14990, 48 h
[13] = test system: Staphylococcus aureus; assay: Antibiofilm activity against Staphylococcus aureus ATCC 6538 assessed as biofilm formation at antibacterial MIC incubated for 24 hrs compound added prior to bacterial biofilm formation by total biomass crystal violet staining-based method relative to control; format: functional
[14] = test system: Enterococcus hirae; assay: Antibacterial activity against Enterococcus hirae ATCC 1052 cultured in BHI medium assessed as reduction in bacterial growth incubated for 48 hrs by microbroth dilution method; format: functional; conditions: ATCC 1052, 48 h
[15] = test system: Staphylococcus aureus; assay: Antibiofilm activity against Staphylococcus aureus ATCC 6538 assessed as biofilm formation at 0.5 times antibacterial MIC incubated for 24 hrs compound added prior to bacterial biofilm formation by total biomass crystal violet staining-based method relative to control; format: functional
[16] = biological target: T1, DNA gyrase (Escherichia coli) (UniProt P0AES6+P0AES4); assay: Inhibition of Escherichia coli DNA gyrase super-coiling activity using relaxed pNO1 DNA as substrate assessed as enzyme residual activity at 1 uM incubated for 30 mins by fluorescence assay relative to control; format: protein-complex assay
[17] = test system: Staphylococcus aureus; assay: Bactericidal activity against methicillin resistant Staphylococcus aureus N315 cultured in MH medium assessed as reduction in bacterial survival incubated for 48 hrs by microbroth dilution method; format: functional; conditions: N315, 48 h
[18] = biological target: T1, DNA gyrase (Escherichia coli); assay: Inhibition of Escherichia coli DNA gyrase super-coiling activity using relaxed pNO1 DNA as substrate assessed as enzyme residual activity at 10 uM incubated for 30 mins by fluorescence assay relative to control; format: protein-complex assay
[19] = test system: Pseudomonas aeruginosa; assay: Biofilm degradation activity against Pseudomonas aeruginosa ATCC 9027 assessed as biofilm formation at antibacterial MIC incubated for 24 hrs compound added post-biofilm formation by total biomass crystal violet staining-based method; format: functional
[20] = test system: Streptococcus pneumoniae; assay: Bactericidal activity against Streptococcus pneumoniae cultured in MH medium assessed as reduction in bacterial survival incubated for 48 hrs by microbroth dilution method; format: functional
[21] = test system: Staphylococcus aureus; assay: Antibiofilm activity against Staphylococcus aureus ATCC 25923 assessed as reduction in biofilm viability at 2.5 to 20 uM incubated for 24 hrs compound added prior to bacterial biofilm formation by resazurin staining based assay relative to control; format: functional
[22] = test system: Staphylococcus aureus; assay: Antibacterial activity against methicillin resistant Staphylococcus aureus 6347 cultured in MH medium assessed as reduction in bacterial growth incubated for 48 hrs by microbroth dilution method; format: functional; conditions: Staphylococcus aureus, 6347, 48 h
[23] = test system: Bacillus spizizenii; assay: Bactericidal activity against Bacillus subtilis ATCC 6633 cultured in MH medium assessed as reduction in bacterial survival incubated for 48 hrs by microbroth dilution method; format: functional; conditions: ATCC 6633, 48 h
[24] = Lipophilicity, log k of the compound at 100 ug/ml by micellar electrokinetic chromatography; format: physicochemical
[25] = test system: Streptococcus pneumoniae; assay: Antibacterial activity against Streptococcus pneumoniae cultured in MH medium assessed as reduction in bacterial growth incubated for 48 hrs by microbroth dilution method; format: functional
[26] = test system: Serratia marcescens; assay: Antibacterial activity against Serratia marcescens ATCC 12795 cultured in MH medium assessed as reduction in bacterial growth incubated for 48 hrs by microbroth dilution method; format: functional; conditions: ATCC 12795, 48 h
[27] = test system: Staphylococcus aureus; assay: Antibacterial activity against Staphylococcus aureus ATCC 6538 cultured in MH medium assessed as reduction in bacterial growth incubated for 48 hrs by microbroth dilution method; format: functional; conditions: ATCC 6538, 48 h
[28] = test system: Serratia marcescens; assay: Bactericidal activity against Serratia marcescens ATCC 12795 cultured in MH medium assessed as reduction in bacterial survival incubated for 48 hrs by microbroth dilution method; format: functional; conditions: ATCC 12795, 48 h
[29] = test system: Staphylococcus epidermidis; assay: Bactericidal activity against Staphylococcus epidermidis ATCC 14990 cultured in MH medium assessed as reduction in bacterial survival incubated for 48 hrs by microbroth dilution method; format: functional; conditions: ATCC 14990, 48 h
[30] = test system: HEK293; assay: Cytotoxicity against human HEK293 cells assessed as cell viability upto 20 uM incubated for 72 hrs by MTT assay; format: cell-based; conditions: hek293, 72 h
[31] = test system: Escherichia coli; assay: Bactericidal activity against […] Escherichia coli ATCC 8739 assessed as reduction in bacterial survival incubated for 48 hrs in presence of 50 ug/ml […], PAbetaN by microbroth dilution method; format: functional; conditions: ATCC 8739, 48 h
[32] = test system: Staphylococcus aureus; assay: Biofilm degradation activity against Staphylococcus aureus ATCC 6538 assessed as biofilm formation at 4 times antibacterial MIC incubated for 24 hrs compound added post-biofilm formation by total biomass crystal violet staining-based method; format: functional
[33] = test system: Bacillus spizizenii; assay: Antibacterial activity against Bacillus subtilis ATCC 6633 cultured in MH medium assessed as reduction in bacterial growth incubated for 48 hrs by microbroth dilution method; format: functional; conditions: ATCC 6633, 48 h
[34] = test system: Staphylococcus aureus; assay: Bactericidal activity against Staphylococcus aureus ATCC 6538 cultured in MH medium assessed as reduction in bacterial survival incubated for 48 hrs by microbroth dilution method; format: functional; conditions: ATCC 6538, 48 h
[35] = test system: Staphylococcus epidermidis; assay: Bactericidal activity against methicillin resistant Staphylococcus epidermidis ATCC 13199 cultured in MH medium assessed as reduction in bacterial survival incubated for 48 hrs by microbroth dilution method; format: functional; conditions: ATCC 13199, 48 h

| SMILES | Activity [1] | MIC [2] | MIC [3] | Activity [4] | MIC [5] | Activity [6] | inhibition [7] | MIC [8] | MBC [9] | MIC [10] | MBC [11] | MIC [12] | Activity [13] | MIC [14] | Activity [15] | Activity [16] | MBC [17] | Activity [18] | Activity [19] | MBC [20] | other results |
| --- | --- | --- | --- | --- | --- | --- | --- | --- | --- | --- | --- | --- | --- | --- | --- | --- | --- | --- | --- | --- | --- |
| CCn1cc(C(=O)O)c(=O)c2cc(F)c(N3CC[N+]4(CN5C(=N4)C(C(=O)O)=Cc4ccccc45)C(C)C3)c(F)c21.[Cl-] (stereo not given) | 44% | 2 µg/mL | 1 µg/mL | Non-Toxic | 0.125 µg/mL | 51% | Active | 0.125 µg/mL | 0.5 µg/mL | 0.25 µg/mL | 0.125 µg/mL | 4 µg/mL | 69% | 512 µg/mL | 47% | 97% | 2 µg/mL | 11% | 65% | 512 µg/mL | inhibition (INH) [21]: 100%; MIC [22]: 4 µg/mL; MBC [23]: 0.5 µg/mL; log K [24]: -0.265; MIC [25]: 512 µg/mL; MIC [26]: 2 µg/mL; MIC [27]: 2 µg/mL; MBC [28]: 2 µg/mL; MBC [29]: 4 µg/mL; Activity [30]: Non-Toxic; MBC [31]: 0.25 µg/mL; Activity [32]: 6%; MIC [33]: 0.5 µg/mL; MBC [34]: 2 µg/mL; MBC [35]: 2 µg/mL |
| O=C(O)C1=Cc2ccccc2N2C[N+]3(CCN(c4cc5c(cc4F)c(=O)c(C(=O)O)cn5C4CC4)CC3)N=C12.[Cl-] | 28% | 4 µg/mL | 2 µg/mL | Non-Toxic | 0.25 µg/mL | 39% | Active | 0.063 µg/mL | 2 µg/mL | 2 µg/mL | 0.063 µg/mL | 2 µg/mL | 6% | > 512 µg/mL | 6% | 97% | 4 µg/mL | 34% | 49% | 512 µg/mL | inhibition (INH) [21]: 100%; MIC [22]: 2 µg/mL; MBC [23]: 2 µg/mL; log K [24]: -0.1527; MIC [25]: 256 µg/mL; MIC [26]: 1 µg/mL; MIC [27]: 4 µg/mL; MBC [28]: 2 µg/mL; MBC [29]: 2 µg/mL; Activity [30]: Non-Toxic; MBC [31]: 0.5 µg/mL; Activity [32]: 10%; MIC [33]: 1 µg/mL; MBC [34]: 4 µg/mL; MBC [35]: 1 µg/mL |
| CCn1cc(C(=O)O)c(=O)c2cc(F)c(N3CC[N+]4(CC3)CN3C(=N4)C(C(=O)O)=Cc4ccccc43)nc21.[Cl-] | 21% | 8 µg/mL | 1 µg/mL | Non-Toxic | 0.5 µg/mL | 43% | Active | 0.25 µg/mL | 2 µg/mL | 1 µg/mL | 0.5 µg/mL | 4 µg/mL | 18% | 512 µg/mL | 35% | 100% | 8 µg/mL | 73% | 61% | 512 µg/mL | inhibition (INH) [21]: 100%; MIC [22]: 4 µg/mL; MBC [23]: 2 µg/mL; log K [24]: -0.2387; MIC [25]: 256 µg/mL; MIC [26]: 8 µg/mL; MIC [27]: 8 µg/mL; MBC [28]: 16 µg/mL; MBC [29]: 4 µg/mL; Activity [30]: Non-Toxic; MBC [31]: 1 µg/mL; Activity [32]: 16%; MIC [33]: 2 µg/mL; MBC [34]: 8 µg/mL; MBC [35]: 2 µg/mL |
